Assay results from publication PMC4792161, “A novel pyrazole derivative protects from ovariectomy-induced osteoporosis through the inhibition of NADPH oxidase” (Scientific Reports, 2016).
Where a name gives a salt, the structure may show the parent alone. Marks after values point to notes of the source that are not given here.

Legend:
BMMs = test: RANKL-induced OC differentiation, TRAP staining; format: cell-based, C57BL/6 mice; details: M-CSF 30 ng/ml, RANKL 100 ng/ml, dose-dependent
Method: RANKL-induced ROS generation was monitored by confocal microscopic analysis of DCF fluorescence. Data represent three repeated experiments and are shown as mean ± SD (n = 3). […] (D) TRAP^+ MNCs containing more than 3 nuclei were counted. Data represent mean ± S.D., *P < 0.005. Scale bar, 500 μm.
Primary BMMs were obtained from 6- to 8-week-old male C57BL/6 mice (The Jackson Laboratory, Bar Harbor, […], USA) as described previously. In brief, bone marrow cells were cultured in α-MEM (HyClone, Logan, UT, USA) containing 10% fetal bovine serum (FBS) (HyClone, Logan UT, USA) with 30 ng/ml macrophage-colony stimulating facor (M-CSF) for 3 days to obtain OC precursor cells of monocyte/macrophage lineage. For OC differentiation, the precursor cells were treated with 100 ng/ml RANKL in the presence of M-CSF with or without for 3–4 days. OCs were fixed with 4% paraformaldehyde and stained for tartrate-resistant acid phosphatase (TRAP) using a leukocyte acid phosphatase cytochemistry kit (Sigma-Aldrich, St. Louis, MO, USA) according to the manufacturer’s instructions. TRAP-positive multinucleated cells (TRAP^+ MNCs) containing three or more nuclei were counted as OC-like cells.

Pre-OCs = test: OC fusion assay; format: cell-based, C57BL/6 mice; details: 10 μM, 24 hours
Method: Cells were stained for TRAP using a leukocyte acid phosphatase cytochemistry kit (Sigma-Aldrich, St. Louis, MO, USA) according to the manufacturer’s instructions. […]
Scale bar, 500 μm. (C,D) Mature OCs were generated with M-CSF and RANKL, cells were seeded onto dentine discs and further cultured with […]
Cells were stained with hematoxylin for visualization of pit formation (C). The area of resorption pits were measured with Image-Pro Plus 4.5 (D). Scale bar, 500
μm. Data represent mean ± S.D., n.s., not significant. […]

[1] = test system: OVX-induced osteoporotic ddY mice; test: Tibia histopathology-histomorphometry in OVX mice; format: in vivo
[2] = test system: OVX-induced osteoporotic ddY mice; test: Femur weights (wet, dry, ash) in OVX mice; format: in vivo
Method: The right sides of femur and tibia were weighed and then dried at 120 °C for 8 hours. The dried bones were carbonized at 800 °C for 6 hours in a furnace (Daihan Scientific, Korea) to detect ash absolute weights, after measurement of BMD and failure load. To reduce the individual body weight differences, the relative weight (%) was calculated using body weight at sacrifice and absolute weight as [Relative bone weights = (Absolute bone weight/Body weight at sacrifice) ×100]. In addition, ashed bones were ground and dissolved in nitric acid. In diluted solution, Ca and P contents were calculated (mg/g bone) using an orthocresolphthalein complex and enzyme methods, respectively. The Ca/P ratio (%) was calculated as (Tibia Ca contents/Tibia P contents) ×100.

[3] = test system: OVX-induced osteoporotic ddY mice; test: Number of OBs in cortical bone lining of OVX mice (H&E); details: mouse, in vivo
Method: Sham OVX Risedronate 20 mg/kg 10 mg/kg 5 mg/kg 2.5 mg/kg20.0mg/kg 10.0mg/kg 5.0mg/kg 2.5mg/kg […]
Supplementary Figure S8. […] CB number was […]
counted in osteoblastic lining in cortical bone with H&E staining. a p<0.005 and b p<0.005 as compared with OVX and Risendronate, respectively, c p<0.005 and d p<0.005 as compared with 20

[4] = test system: OVX-induced osteoporotic ddY mice; test: OVX-induced osteoporosis in ddY mice, overall anti-osteoporotic effect; format: in vivo
Method: Risedronate sodium (2.5 mg/kg) served as a reference compound. […] Histopathology and histomorphometrical analyses including trabecular bone volume (BV/TV), trabecular bone number (Tb.N), trabecular bone length (Tb.Le), trabecular bone thickness (Tb.Th), cortical bone thickness (Ct.Th), OC number (N.Oc), bone mineral density (BMD) and bone strength (failure load, FL) were conducted.
The study was reviewed and approved by the Institutional Animal Care and Use Committee (IACUC) of Center for Laboratory Animal Sciences, Ewha Industry-University Cooperation Foundation, Ewha Womans University. Experimental methods were carried out in accordance with the approved ethic guidelines in Ewha Industry-University Cooperation Foundation, Ewha Womans University. Beginning 4 weeks after OVX, the female ddY mice received 2.5, 5, 10, or 20 mg/kg of #18–278, 2.5 mg/kg of risedronate, or vehicle once daily for 28 days. The Changes in body weight, bone weight, bone mineral density (BMD), failure load (FL), bone calcium (Ca), inorganic phosphorus (P) contents, histology and histomorphology were monitored. Serum osteocalcin and bone specific alkaline phosphatase (bALP) were monitored in mice receiving Ewha-18278.

[5] = 2.5 mg/kg oral once daily 28 days
[6] = 5 mg/kg oral once daily 28 days
[7] = 10 mg/kg oral once daily 28 days
[8] = 20 mg/kg oral once daily 28 days

CCCc1c(-c2ccccc2)nn(-c2ccccn2)c1O [Ewha-18278, 3-phenyl-1-(pyridin-2-yl)-4-propyl-1H-5-hydroxypyrazole HCl]
formation of TRAP-positive OCs with >3 nuclei (BMMs): inhibited the formation of TRAP-positive OCs | fusion of OCs (Pre-OCs): did not affect | BV/TV (trabecular bone volume) [1, 5]: 19.04 ± 3.10 ^a % | Ct.Th (cortical bone thickness) [1, 5]: 122.04 ± 11.96 ^a μm | N.OC/BS (osteoclast cell number, N/epiphyseal) [1, 5]: 14.13 ± 3.44 ^a numbers | Tb.N (trabecular bone number, N/epiphyseal) [1, 5]: 8.63 ± 1.60 ^a numbers | Tb.Th (trabecular bone thickness) [1, 5]: 34.89 ± 5.16 ^a μm | BV/TV (trabecular bone volume) [1, 6]: 29.39 ± 2.41 ^bc % | Ct.Th (cortical bone thickness) [1, 6]: 137.51 ± 10.96 ^ac μm | Tb.N (trabecular bone number, N/epiphyseal) [1, 6]: 12.50 ± 1.31 ^ac numbers | Tb.Th (trabecular bone thickness) [1, 6]: 48.34 ± 6.87 ^ac μm | BV/TV (trabecular bone volume) [1, 7]: 33.36 ± 4.35 ^c % | Ct.Th (cortical bone thickness) [1, 7]: 182.11 ± 12.48 ^c μm | N.OC/BS (osteoclast cell number, N/epiphyseal) [1, 7]: 8.13 ± 2.23 ^ac numbers | Tb.N (trabecular bone number, N/epiphyseal) [1, 7]: 15.00 ± 2.00 ^ac numbers | Tb.Th (trabecular bone thickness) [1, 7]: 53.36 ± 5.94 ^ac μm | BV/TV (trabecular bone volume) [1, 8]: 33.78 ± 3.47 ^c % | Ct.Th (cortical bone thickness) [1, 8]: 194.28 ± 15.50 ^c μm | N.OC/BS (osteoclast cell number, N/epiphyseal) [1, 8]: 6.88 ± 2.36 ^ac numbers | Tb.N (trabecular bone number, N/epiphyseal) [1, 8]: 17.13 ± 1.81 ^c numbers | Tb.Th (trabecular bone thickness) [1, 8]: 55.98 ± 7.15 ^ac μm | Femur absolute weights, Ash [2, 5]: 0.030 g | Femur absolute weights, Dry [2, 5]: 0.065 g | Femur absolute weights, Wet [2, 5]: 0.097 g | Femur absolute weights, Ash [2, 6]: 0.037 g | Femur absolute weights, Dry [2, 6]: 0.065 g | Femur absolute weights, Wet [2, 6]: 0.093 g | Femur absolute weights, Ash [2, 7]: 0.038 g | Femur absolute weights, Dry [2, 7]: 0.067 g | Femur absolute weights, Wet [2, 7]: 0.096 g | Femur absolute weights, Ash [2, 8]: 0.038 g | Femur absolute weights, Dry [2, 8]: 0.067 g | Femur absolute weights, Wet [2, 8]: 0.096 g | number of OBs in tibia and femur compared to OVX control mice [3]: increased | anti-osteoporotic effects ([4]; 2.5 mg/kg): did not produce obvious favorable anti-osteoporotic effects | anti-osteoporotic effects compared to risedronate (2.5 mg/kg/day for 28 days) ([4]; 10 mg/kg/day for 28 days): similar | cortical bone thickness compared to risedronate ([4]; OVX mice): significantly increased cortical bone thickness | number of OCs in the tibia and femur ([4]; compared to control mice): decreased number of OCs | optimal effective dosage ([4]; oral once daily 28 days, OVX mice): 10 mg/kg
